What is called inhibition is how much of the control response was suppressed. Broadly, the Ki is a dissociation constant, usually derived from enzyme kinetics or from competition with a known ligand. A lower Ki goes with higher affinity. For orientation: IC50 means the point on the concentration scale where inhibition reaches its midpoint. Low readings indicate greater potency, high ones weaker potency.

Square brackets hold non-standard residues; d marks the D form. Peptide text beside a SMILES is read from it. Aoe = N[C@@H](CCCCCC(=O)[C@@H]1CO1)C(=O)O

Experiment [1] has as its target T1, Histone deacetylase HD2 (Zea mays) (UniProt Q94F81).
T1 sequence (whole entry): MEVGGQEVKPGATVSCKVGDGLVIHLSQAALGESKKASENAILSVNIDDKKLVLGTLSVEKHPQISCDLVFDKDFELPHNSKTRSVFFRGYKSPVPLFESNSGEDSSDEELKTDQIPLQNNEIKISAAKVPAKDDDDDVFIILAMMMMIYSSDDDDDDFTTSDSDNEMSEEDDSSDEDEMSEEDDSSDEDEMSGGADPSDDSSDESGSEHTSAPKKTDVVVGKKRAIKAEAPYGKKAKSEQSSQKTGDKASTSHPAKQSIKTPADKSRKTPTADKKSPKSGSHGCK
Kind of experiment: Percent inhibition of histone deacetylase activity at 30 uM.

The target of experiment [2] is T2, Histone deacetylase HD2 (Zea mays, UniProt Q94F81).
T2 sequence (Q94F81 whole entry): T1 sequence (whole entry)
Kind of experiment: Experimental anti-HDAC (anti-histone deacetylase) activity of the compound.

Experiment [3] has as its target T2, Histone deacetylase HD2. Briefly: Inhibitory concentration against histone deacetylase activity.
Experiment [4] concerns the target T1, Histone deacetylase HD2 (Zea mays). Briefly: Percent inhibition of histone deacetylase activity at 5 mM.

`Cn1cc(C(=O)c2ccccc2)cc1/C=C/C(=O)NN` gave an inhibition in experiment [1] of 0.2%.
On to `Cn1cc(C(=O)c2ccc(F)cc2)cc1/C=C/C(=O)NO`, for which the inhibition in experiment [1] came to 84%. Besides, affinity at Histone deacetylase HD2 [2] was put at a Ki of 2290 nM. In addition, half-maximal inhibition on Histone deacetylase HD2 [3] (IC50) was put at 3800 nM.
On to `O=C(CCCCCCC(=O)Nc1ccccc1)NO` [VORINOSTAT], for which the Ki on Histone deacetylase HD2 [2] was 132 nM.
`Cn1cc(C(=O)c2ccc(Cl)cc2)cc1/C=C/C(=O)NO` came in with an inhibition in experiment [1] of 87%. The Ki at Histone deacetylase HD2 [2] is 1450 nM. Besides, the IC50 against Histone deacetylase HD2 [3] stood at 2400 nM.
On to `COc1ccc(C(=O)c2cc(/C=C/C(=O)NO)n(C)c2)cc1`, for which, in experiment [1], the inhibition amounted to 75.2%. For the same molecule, the Ki at Histone deacetylase HD2 [2] is 1740 nM. The IC50 against Histone deacetylase HD2 [3] worked out at 2900 nM.
Molecule `O=C1N[C@@H](Cc2ccccc2)C(=O)N2CCC[C@@H]2C(=O)N[C@@H](CCCCCC(=O)[C@@H]2CO2)C(=O)N[C@H]1Cc1ccccc1` [TRAPOXIN B] (cyclo(FF[dP][Aoe])) displayed an IC50 against Histone deacetylase HD2 [3] of 10 nM.
In experiment [1], `Cn1cc(C(=O)c2ccccc2)cc1CCC(=O)NO` yielded an inhibition of 45%. The molecule further had a Ki on Histone deacetylase HD2 [2] of 4.37 nM. At Histone deacetylase HD2 [3], the IC50 was 36800 nM.
Molecule `Cn1cc(C(=O)c2ccccc2)cc1/C=C/C(=O)NCCO` registered an inhibition in experiment [1] of 0.9%.
As to `CN(C)c1ccc(C(=O)c2cc(/C=C/C(=O)NO)n(C)c2)cc1`, the inhibition in experiment [1] amounted to 88%. On Histone deacetylase HD2 [2], the Ki was 1450 nM. The molecule further showed an IC50 on Histone deacetylase HD2 [3] of 2400 nM.
The molecule `Cc1ccc(C(=O)c2cc(/C=C/C(=O)NO)n(C)c2)cc1` yielded an inhibition in experiment [1] of 86.4%. The Ki on Histone deacetylase HD2 [2] is 1120 nM. The molecule further gave an IC50 against Histone deacetylase HD2 [3] of 1900 nM.
In experiment [4], `CCCC(=O)[O-].[Na+]` yielded an inhibition of 35%.
For the molecule `Cn1cc(C(=O)c2ccc([N+](=O)[O-])cc2)cc1/C=C/C(=O)NO`, the inhibition in experiment [1] is 78%. Also, the inhibition constant Ki on Histone deacetylase HD2 [2] was 2340 nM. Also, half-maximal inhibition on Histone deacetylase HD2 [3] (IC50) required 3900 nM.
Turning to `Cn1cc(C(=O)c2ccccc2)cc1/C=C/C(=O)NO`, the inhibition in experiment [1] stood at 86%. This molecule gave a Ki on Histone deacetylase HD2 [2] of 2290 nM. This molecule also showed an IC50 at Histone deacetylase HD2 [3] of 3800 nM.
